Results taken from publication PMC10850145, “Hormonal steroids induce multidrug resistance and stress response genes in Neisseria gonorrhoeae by binding to MtrR” (Nature Communications, 2024).
Where “and” joins values, the source holds several entries; their conditions need not be identical. Equal values may be shown once. Entries after “also recorded” stand apart in the source; their conditions may differ.

How the values were obtained:
[1] = test system: ngo1249-lacZ expression; assay: β-galactosidase assay, ngo1249-lacZ fusion (negative control gene); settings: WT-NGO1249-lacZ, 100 µM hormone
[2] = biological target: T1, MtrR D171A (Neisseria gonorrhoeae, UniProt P39897, D171A); assay: biochemical; assay type: binding; settings: ITC
T1 construct: Hexa-histidine tag with TEV protease cleavage site (N, cleaved yes); made in house; host or cells: E. coli Rosetta Gami B(DE3) pLysS
T1 sequence (P39897 whole entry D171A): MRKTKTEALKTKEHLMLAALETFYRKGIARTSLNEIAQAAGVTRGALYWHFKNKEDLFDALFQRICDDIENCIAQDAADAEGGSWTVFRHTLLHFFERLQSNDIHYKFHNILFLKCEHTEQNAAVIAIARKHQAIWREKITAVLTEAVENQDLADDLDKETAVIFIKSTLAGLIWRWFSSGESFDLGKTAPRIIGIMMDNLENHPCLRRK

[3] = biological target: T2, MtrR W136A (Neisseria gonorrhoeae, UniProt P39897, W136A); assay: biochemical; assay type: binding; settings: ITC
T2 construct: Hexa-histidine tag with TEV protease cleavage site (N, cleaved yes); made in house; host or cells: E. coli Rosetta Gami B(DE3) pLysS
T2 sequence (P39897 whole entry W136A): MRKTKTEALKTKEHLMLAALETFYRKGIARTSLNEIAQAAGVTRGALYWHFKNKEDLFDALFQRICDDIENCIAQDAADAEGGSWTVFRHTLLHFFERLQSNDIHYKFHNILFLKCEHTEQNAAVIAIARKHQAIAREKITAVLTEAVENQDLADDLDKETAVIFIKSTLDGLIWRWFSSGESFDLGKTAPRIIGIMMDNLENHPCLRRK

[4] = biological target: T3, MtrR binding to rpoH operator (27mer) (Neisseria gonorrhoeae, UniProt P39897); assay: Plate-based fluorescence polarization DNA-binding assay, rpoH operator; settings: for fluorescence polarization, plate-based MtrR titration: rpoH 27mer + 125µM
T3 construct: Hexa-histidine tag with TEV protease cleavage site (N, cleaved yes); made in house; host or cells: E. coli Rosetta Gami B(DE3) pLysS
T3 sequence (P39897 whole entry): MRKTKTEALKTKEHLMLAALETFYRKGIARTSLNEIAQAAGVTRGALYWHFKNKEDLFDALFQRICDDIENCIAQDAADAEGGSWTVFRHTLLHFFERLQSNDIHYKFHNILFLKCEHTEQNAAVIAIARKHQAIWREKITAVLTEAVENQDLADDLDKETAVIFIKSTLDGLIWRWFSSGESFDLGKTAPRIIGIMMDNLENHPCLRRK
Description: (§1) To analyze the effect of ethinyl estradiol on DNA binding by MtrR, fluorescence polarization DNA-binding data were collected in 96-well plates (Costar #3915 black, flat bottom). with a SpectraMax M5e Microplate Reader (Molecular Devices) and analyzed with Prism (Graphpad Software, version 10.0.0). Purified MtrR was buffer exchanged into “DNA” binding buffer (150 mM NaCl, 20 mM Tris-HCl pH 7.5, 2.5% glycerol, 1 mM TCEP). […] The binding affinity of protein for DNA was determined using the Morrison’s quadratic equation[72]. BSA and dI-dC are included as carriers and to control for nonspecific DNA binding. Samples were excited at 485 nm and polarized emissions measured at 525 nm, with a 515 nm cutoff. Controls were run with no protein (DNA ± methanol, ethinyl estradiol) to ensure that millipolarization values were not affected by experimental conditions alone. At least three independent experimental measurements were averaged for each reported binding constant.
(§2) Figure S2: Presence of Ethinyl Estradiol influences binding of MtrR to rpoH and mtrCDE operators. Plate based Fluorescence polarization DNA-binding isotherms reveal decreases in the binding affinity of MtrR for the rpoH and mtrCDE operators in the presence of ethinyl estradiol.
(§3) Experiments were run on the three independent experimental measurements were averaged for each reported binding constant. Data are represented by the mean values (point) +/- SEM (error

[5] = test system: mtrC-lacZ expression; assay type: cell-based, Neisseria gonorrhoeae; settings: only when strain produced wild-type MtrR
[6] = test system: rpoH-lacZ expression; assay type: cell-based, Neisseria gonorrhoeae; settings: only when strain produced wild-type MtrR
[7] = biological target: T4, MtrR (Neisseria gonorrhoeae, UniProt P39897); assay: Isothermal titration calorimetry, ligand binding to MtrR WT; settings: ITC
T4 construct: Hexa-histidine tag with TEV protease cleavage site (N, cleaved yes); made in house; host or cells: E. coli Rosetta Gami B(DE3) pLysS
T4 sequence (P39897 whole entry): as above

[8] = biological target: T5, MtrR binding to mtrCDE operator (21mer) (Neisseria gonorrhoeae, UniProt P39897); assay: Plate-based fluorescence polarization DNA-binding assay, mtrCDE operator; settings: mtrCDE 21mer + 125µM
T5 construct: Hexa-histidine tag with TEV protease cleavage site (N, cleaved yes); made in house; host or cells: E. coli Rosetta Gami B(DE3) pLysS
T5 sequence (P39897 whole entry): as above
Description: as §1, §2, §3

[9] = biological target: T4, MtrR; set-up: method as in PMID 31331979; settings: cited from earlier work

## CC12CCC3c4ccc(O)cc4CCC3C1CCC2O (stereo not drawn) [Beta-Estradiol]
[1]
  Mean Miller units: 4.6 Miller units

## C#C[C@]1(O)CC[C@H]2[C@@H]3CCc4cc(O)ccc4[C@H]3CC[C@@]21C [Ethinyl Estradiol, ethinyl estradiol]
[2]
  binding to MtrR D171A: no observable binding
[3]
  binding to MtrR W136A compared with wild type: tolerates binding
[4]; presence of ethinyl estradiol, 125 µM
  change in binding affinity of MtrR for rpoH operator: decreases in
[4]; MtrR WT dimer 0 nM
  fluorescence polarization, plate-based MtrR titration: 0 mP
[4]; MtrR WT dimer 9.4 nM
  fluorescence polarization, plate-based MtrR titration: 5 mP and 3 mP and 4 mP
[4]; MtrR WT dimer 25 nM
  fluorescence polarization, plate-based MtrR titration: 10 mP and 5 mP
[4]; MtrR WT dimer 37.5 nM
  fluorescence polarization, plate-based MtrR titration: 12 mP and 10 mP and 16 mP
[4]; MtrR WT dimer 50 nM
  fluorescence polarization, plate-based MtrR titration: 21 mP and 17 mP and 16 mP
[4]; MtrR WT dimer 75 nM
  fluorescence polarization, plate-based MtrR titration: 25 mP and 18 mP and 24 mP
[4]; MtrR WT dimer 100 nM
  fluorescence polarization, plate-based MtrR titration: 29 mP and 24 mP
[4]; MtrR WT dimer 150 nM
  fluorescence polarization, plate-based MtrR titration: 36 mP and 29 mP and 33 mP
[4]; MtrR WT dimer 200 nM
  fluorescence polarization, plate-based MtrR titration: 40 mP and 31 mP and 33 mP
[4]; MtrR WT dimer 300 nM
  fluorescence polarization, plate-based MtrR titration: 44 mP and 39 mP and 40 mP
[4]; MtrR WT dimer 400 nM
  fluorescence polarization, plate-based MtrR titration: 48 mP and 37 mP and 40 mP
[4]; MtrR WT dimer 600 nM
  fluorescence polarization, plate-based MtrR titration: 50 mP and 42 mP and 51 mP
[4]; MtrR WT dimer 800 nM
  fluorescence polarization, plate-based MtrR titration: 50 mP and 44 mP and 53 mP
[5]
  induction of mtrC expression: could induce expression
[6]
  induction of rpoH expression: could induce expression
[7]
  binding stoichiometry N (ligand per MtrR): ~ 1
[7]; 25 °C, 1% MeOH, read-out: equilibrium dissociation constant (Kd), MtrR WT
  Kd: 940 nM and ~940 nM
[8]; MtrR WT dimer 0 nM
  fluorescence polarization, plate-based MtrR titration: 0 mP
[8]; MtrR WT dimer 37.5 nM
  fluorescence polarization, plate-based MtrR titration: 6 mP and 5 mP
[8]; MtrR WT dimer 75 nM
  fluorescence polarization, plate-based MtrR titration: 9 mP and 8 mP and 10 mP
[8]; MtrR WT dimer 100 nM
  fluorescence polarization, plate-based MtrR titration: 11 mP and 12 mP
[8]; MtrR WT dimer 150 nM
  fluorescence polarization, plate-based MtrR titration: 12 mP and 15 mP and 13 mP
[8]; MtrR WT dimer 200 nM
  fluorescence polarization, plate-based MtrR titration: 18 mP and 21 mP and 16 mP
[8]; MtrR WT dimer 300 nM
  fluorescence polarization, plate-based MtrR titration: 28 mP and 21 mP
[8]; MtrR WT dimer 400 nM
  fluorescence polarization, plate-based MtrR titration: 26 mP and 30 mP and 27 mP
[8]; MtrR WT dimer 600 nM
  fluorescence polarization, plate-based MtrR titration: 31 mP and 27 mP and 29 mP
[8]; MtrR WT dimer 800 nM
  fluorescence polarization, plate-based MtrR titration: 33 mP and 36 mP and 34 mP

## CC[C@H]1OC(=O)[C@H](C)[C@@H](O[C@H]2C[C@@](C)(OC)[C@@H](O)[C@H](C)O2)[C@H](C)[C@@H](O[C@@H]2O[C@H](C)C[C@H](N(C)C)[C@H]2O)[C@](C)(O)C[C@@H](C)CN(C)[C@H](C)[C@@H](O)[C@]1(C)O [azithromycin]
[7]
  binding to MtrR WT: no binding; also recorded: does not bind

## C[C@H](CCC(=O)O)[C@H]1CC[C@H]2[C@@H]3[C@H](O)C[C@@H]4C[C@H](O)CC[C@]4(C)[C@H]3CC[C@]12C [chenodeoxycholate]
[9]
  MtrR binding and induction: binds and is induced by

## CC(C)CCC[C@@H](C)[C@H]1CC[C@H]2[C@@H]3CC=C4C[C@@H](O)CC[C@]4(C)[C@H]3CC[C@]12C [cholesterol]
[7]
  binding to MtrR WT: no binding

## C[C@]12CCC(=O)C=C1CC[C@@H]1[C@@H]2[C@@H](O)C[C@@]2(C)[C@H]1CC[C@]2(O)C(=O)CO [cortisol]
[7]
  binding to MtrR WT: no binding

## C[C@H](CCC(=O)NCCS(=O)(=O)O)[C@H]1CC[C@H]2[C@@H]3CC[C@@H]4C[C@H](O)CC[C@]4(C)[C@H]3C[C@H](O)[C@]12C [taurodeoxycholate]
[9]
  MtrR binding and induction: binds and is induced by
